From US9044409B2, “Use of chromen-4-one derivatives” (Merck Patent GmbH, priority 2003, dated 2015)

Columns and labels:
keratinocyte cultures = details: cited from earlier work
[1] = tested on: PGE2 release from human keratinocytes (cell line NCTC R13); test: Antiinflammatory properties (PGE2 assay): PMA-induced PGE2 release, ELISA; format: cell-based; details: for PGE2: PMA-stimulated, 24 h; for PGE2 release % compared with control: control (only PMA) = 100
Procedure: Human keratinocytes of the cell line NCTC R13 are pre-cultivated for 24 hours at 37° C. in a 5% CO2 atmosphere with DMEM culture medium (Life Technologies). The cells are treated with LU for 24 hours, and the culture medium is then removed. A fresh culture medium containing the inflammation-triggering active ingredient phorbol myristate acetate (PMA; […]) and LU is added. After incubation for 24 hours, the culture medium is collected and analysed. By means of an ELISA DE0100 kit (R&D Systems), the release is used in order to investigate the release of the inflammation marker prostaglandin E2 (PGE2) (Table).

[2] = target: T1, elastase (from human leukocytes) (Homo sapiens, UniProt P08246); test: Action on the activity of leukocyte elastase (fluorescence, elastin substrate); format: biochemical
T1 construct: elastase (from human leukocytes; Sigma E8140; 100 mU/well); purchased Sigma E8140; host or cells: human leukocytes
T1 sequence (P08246 30-267): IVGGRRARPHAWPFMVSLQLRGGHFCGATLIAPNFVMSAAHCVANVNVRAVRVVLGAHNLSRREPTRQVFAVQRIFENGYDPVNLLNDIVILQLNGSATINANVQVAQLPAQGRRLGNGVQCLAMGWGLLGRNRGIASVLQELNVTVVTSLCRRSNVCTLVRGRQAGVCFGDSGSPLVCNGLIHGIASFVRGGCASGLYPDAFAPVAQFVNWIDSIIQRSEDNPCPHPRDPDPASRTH
Procedure: 5,7-Dihydroxy-2-methylchromen-4-one in TRIS buffer (500 mM) is incubated for 10 minutes on ice with elastase (from human leukocytes; Sigma E8140; 100 mU/well). 5 μg/well of elastin are subsequently added, and the plates are incubated at 37° C. for 2 hours. The fluorescence is determined using a Spectromax Gemini spectrometer (Molecular Devices) at λex=485 nm and λem=538 nm.

[3] = target: T2, hyaluronidase (HYAL, Sigma type IV-S, H3884) (Bos taurus, UniProt Q2YDK3); test: Action on the activity of hyaluronidase (remaining hyaluronic acid determined photometrically); format: biochemical; details: for Hyaluronidase activity: control (no LU) = 100
T2 construct: hyaluronidase (HYAL, Sigma type IV-S, H3884)
T2 sequence (Q2YDK3 1-553): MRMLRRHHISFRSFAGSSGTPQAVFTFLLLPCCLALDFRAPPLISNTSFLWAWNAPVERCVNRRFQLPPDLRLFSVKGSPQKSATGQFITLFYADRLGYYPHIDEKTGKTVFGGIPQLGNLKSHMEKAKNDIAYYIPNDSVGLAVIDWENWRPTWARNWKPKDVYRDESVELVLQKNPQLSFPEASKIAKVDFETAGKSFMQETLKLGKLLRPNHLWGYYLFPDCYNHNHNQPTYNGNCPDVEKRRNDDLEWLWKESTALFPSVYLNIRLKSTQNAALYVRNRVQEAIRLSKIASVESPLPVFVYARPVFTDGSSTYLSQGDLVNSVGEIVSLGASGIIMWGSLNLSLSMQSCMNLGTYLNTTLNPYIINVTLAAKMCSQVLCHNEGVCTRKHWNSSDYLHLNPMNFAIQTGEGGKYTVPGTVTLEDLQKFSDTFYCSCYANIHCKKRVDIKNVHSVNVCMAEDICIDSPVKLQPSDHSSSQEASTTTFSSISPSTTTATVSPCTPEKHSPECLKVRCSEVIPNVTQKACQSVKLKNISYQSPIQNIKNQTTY
Procedure: 5,7-Dihydroxy-2-methylchromen-4-one in phosphate buffer (0.1 M) is pre-incubated with hyaluronidase (HYAL, Sigma type IV-S, H3884; 1 mg/l in phosphate buffer (0.1 M)). Hyaluronic acid (HA, Sigma H-1876; 1.2 mg/ml) is subsequently added, and the mixture is incubated at 37° C. for 1 hour. The remaining hyaluronic acid (HA) is subsequently precipitated using serum albumen (BSA, Sigma A7888) and determined photometrically.

[4] = over the entire pH range; cited from earlier work

## O=C1CCOc2ccccc21 [Example 4-chromanone, 4-chromanone]
Keratinocyte cultures
  cell differentiation: promotes cell differentiation
  lipid production: stimulates lipid production

## Cc1cc(=O)c2c(O)cc(O)cc2o1 [LU, 5,7-dihydroxy-2-methylchromen-4-one]
[1]; 0.008 mM LU
  PGE2: 340.62 ng/mL
  PGE2 release % compared with control: 113%
[1]; 0.04 mM LU
  PGE2: 226.39 ng/mL
  PGE2 release % compared with control: 75%
[1]; 0.2 mM LU
  PGE2: 6.31 ng/mL
  PGE2 release % compared with control: 2%
[1]; doses of 0.2 mM and 0.04 mM
  PGE2 release on exposure to PMA (in words): clear reduction in PGE2 release
[2]; 40 μM LU
  % quenching: 0%
  Fluorescence intensity: 2195.9
  inhibition at 40 µM: 10%
[2]; 40 μM LU, neg. control = 100, read-out: Elastase activity % compared with control
  remaining activity at 40 µM: 90%
[2]; 200 μM LU
  % quenching: 19%
  Fluorescence intensity: 1096.4
  inhibition at 200 µM: 45%
[2]; 200 μM LU, neg. control = 100, read-out: Elastase activity % compared with control
  remaining activity at 200 µM: 45%
[2]; doses of 200 μM and 40 μM
  Inhibition of the elastase activity (in words): clear inhibition of the elastase activity
[3]; 3.125 mM LU
  inhibition at 3125 µM: 9%
  Hyaluronidase activity: 91
[3]; 6.25 mM LU
  inhibition at 6250 µM: 19%
  Hyaluronidase activity: 81
[3]; 12.5 mM LU
  inhibition at 12500 µM: 37%
  Hyaluronidase activity: 63
[3]; 25 mM LU
  inhibition at 25000 µM: 63%
  Hyaluronidase activity: 37
[3]; in the doses investigated (3.125-25 mM)
  Inhibition of hyaluronidase activity (in words): clear inhibition of hyaluronidase activity

## O=c1c(O)c(-c2ccc(O)c(O)c2)oc2cc(O)cc(O)c12 [Quercetin, 3,3′,4′,5,7-pentahydroxyflavone]
[4]
  antioxidant activity: greatest activity amongst the structures investigated
